Legend:
Test in all cases: relative viability (nuclei count vs DMSO), 5 days (fraction); higher = more cells survive
[1] = compound: CN(C)C/C=C/C(=O)Nc1cc2c(Nc3ccc(F)c(Cl)c3)ncnc2cc1O[C@H]1CCOC1 [Afatinib]
Summary of the method: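 Viability is treated-well nuclei as a fraction of vehicle-well nuclei, reported as the median across plates. Before counting, lung cancer cell lines were kept overnight at 37 °C in 1536-well plates, pinned with five √10-spaced library-drug doses on vehicle-anchored plates, and left 5 days without medium change, then fixed, permeabilised and Hoechst-stained in one step, imaged at 4× and counted by MetaXpress. A plate passed only if control CV was below 25% and at least one doubling occurred.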

[2] = compound: CN(C)C/C=C/C(=O)Nc1cc2c(Nc3ccc(F)c(Cl)c3)ncnc2cc1O[C@H]1CCOC1 [Afatinib] + N=C(N)NC(=N)NCCc1ccccc1 [Phenformin] (partner 250 µM)
Summary of the method: (§1)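 For relative viability, nuclei counts in treated wells were divided by those in vehicle wells. Lung cancer cell lines had been pin-tool dosed in 1536-well plates the day after seeding and cultured for 5 days, then fixed and stained in one step (final 0.05% Triton X-100, 1% formaldehyde, 1 ug/ml Hoechst) and imaged at 4×. Doses were one drug alone or a fixed anchor-drug dose plus five library-drug doses (not always all listed) in √10 steps, and values are duplicate-plate medians.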

[3] = compound: CN(C)C/C=C/C(=O)Nc1cc2c(Nc3ccc(F)c(Cl)c3)ncnc2cc1O[C@H]1CCOC1 [Afatinib] + COc1cccc2cc(-c3nc([C@H]4CC[C@H](C(=O)O)CC4)n4ncnc(N)c34)[nH]c12 [OSI-027] (partner 0.5 µM)
Summary of the method: as §1

[4] = compound: CN(C)C/C=C/C(=O)Nc1cc2c(Nc3ccc(F)c(Cl)c3)ncnc2cc1O[C@H]1CCOC1 [Afatinib] + CC(=O)Nc1cccc(-n2c(=O)n(C3CC3)c(=O)c3c(Nc4ccc(I)cc4F)n(C)c(=O)c(C)c32)c1 [Trametinib] (partner 0.02 µM)
Summary of the method: as §1

| Cell Line | relative viability ([1]; 0.005 µM) | relative viability ([1]; 0.01581 µM) | relative viability ([1]; 0.05 µM) | relative viability ([1]; 0.1581 µM) | relative viability ([1]; 0.5 µM) | relative viability ([2]; first compound 0.005 µM) | relative viability ([2]; first compound 0.01581 µM) | relative viability ([2]; first compound 0.05 µM) | relative viability ([2]; first compound 0.1581 µM) | relative viability ([2]; first compound 0.5 µM) | relative viability ([3]; first compound 0.005 µM) | relative viability ([3]; first compound 0.01581 µM) | relative viability ([3]; first compound 0.05 µM) | relative viability ([3]; first compound 0.1581 µM) | relative viability ([3]; first compound 0.5 µM) | relative viability ([4]; first compound 0.005 µM) | relative viability ([4]; first compound 0.01581 µM) | relative viability ([4]; first compound 0.05 µM) | relative viability ([4]; first compound 0.1581 µM) | relative viability ([4]; first compound 0.5 µM) |
| --- | --- | --- | --- | --- | --- | --- | --- | --- | --- | --- | --- | --- | --- | --- | --- | --- | --- | --- | --- | --- |
| LOU-NH91 | 0.784 | 0.813 | 0.887 | 0.73 | 0.791 | 0.342 | 0.45 | 0.477 | 0.394 | 0.548 | 0.491 | 0.404 | 0.477 | 0.4 | 0.518 | 0.718 | 0.683 | 0.718 | 0.671 | 0.727 |
| LU99A | 1.15 | 0.984 | 0.94 | 0.924 | 0.975 | 0.837 | 0.851 | 0.891 | 0.944 | 0.828 | 0.294 | 0.297 | 0.295 | 0.287 | 0.292 | 0.635 | 0.569 | 0.589 | 0.509 | 0.552 |
| LXF-289 | 1.01 | 0.97 | 0.947 | 0.94 | 0.94 | 0.492 | 0.521 | 0.534 | 0.468 | 0.471 | 0.82 | 0.606 | 0.62 | 0.602 | 0.67 | 0.702 | 0.716 | 0.616 | 0.613 | 0.647 |
| NCI-H23 | 1.1 | 0.976 | 0.922 | 0.97 | 0.792 | 0.847 | 0.825 | 0.808 | 0.772 | 0.718 | 0.585 | 0.611 | 0.54 | 0.599 | 0.47 | 0.358 | 0.323 | 0.359 | 0.331 | 0.345 |
| NCI-H322M | 0.705 | 0.495 | 0.533 | 0.545 | 0.419 | 0.636 | 0.433 | 0.535 | 0.463 | 0.446 | 0.511 | 0.422 | 0.463 | 0.356 | 0.397 | 0.492 | 0.463 | 0.458 | 0.43 | 0.442 |
| NCI-H358 | 0.825 | 0.566 | 0.455 | 0.282 | 0.302 | 0.266 | 0.171 | 0.171 | 0.163 | 0.175 | 0.484 | 0.316 | 0.239 | 0.19 | 0.189 | 0.119 | 0.115 | 0.13 | 0.102 | 0.127 |
| NCI-H1299 | 0.992 | 0.992 | 1.06 | 1.01 | 0.98 | – | – | – | – | – | – | – | – | – | – | – | – | – | – | – |
| NCI-H1563 | 0.992 | 0.932 | 0.97 | 0.895 | 0.99 | 0.625 | 0.667 | 0.649 | 0.651 | 0.623 | 0.729 | 0.739 | 0.737 | 0.709 | 0.746 | – | – | – | – | – |
| NCI-H1648 | 0.881 | 0.765 | 0.437 | 0.478 | 0.457 | – | – | – | – | – | 0.253 | 0.266 | 0.298 | 0.219 | 0.27 | 0.423 | 0.462 | 0.316 | 0.287 | 0.246 |
| NCI-H1703 | 1.25 | 0.749 | 1.03 | 0.853 | 0.713 | – | – | – | – | – | – | – | – | – | – | – | – | – | – | – |

Source: the supplement of paper PMC10307832
